Source: ChEMBL document CHEMBL5346892, “Design and synthesis of benzochromene derivatives as AcrB inhibitors for the reversal of bacterial multidrug resistance” (Eur J Med Chem, 2023)
Calls of active or inactive are those of the source. No cut-off for these calls is given here.

What was measured:
Escherichia coli [1] = assay: Synergistic antibacterial activity against wild type Escherichia coli BW25113 assessed as erythromycin MIC at 8 microg/ml incubated for 18 hrs by broth dilution assay; type: functional; details: dose 8 µg/ml
Escherichia coli [2] = assay: Synergistic antibacterial activity against wild type Escherichia coli BW25113 assessed as erythromycin MIC at 16 microg/ml incubated for 18 hrs by broth dilution assay; type: functional; details: dose 16 µg/ml
Escherichia coli [3] = assay: Synergistic antibacterial activity against wild type Escherichia coli BW25113 assessed as erythromycin MIC at 32 microg/ml incubated for 18 hrs by broth dilution assay; type: functional; details: dose 32 µg/ml
Escherichia coli [4] = assay: Synergistic antibacterial activity against wild type Escherichia coli BW25113 assessed as erythromycin MIC at 64 microg/ml incubated for 18 hrs by broth dilution assay; type: functional; details: dose 64 µg/ml
Escherichia coli [5] = assay: Synergistic antibacterial activity against wild type Escherichia coli BW25113 assessed as erythromycin MIC at 128 microg/ml incubated for 18 hrs by broth dilution assay; type: functional; details: dose 128 µg/ml
Escherichia coli [6] = assay: Synergistic antibacterial activity against wild type Escherichia coli BW25113 assessed as levofloxacin MIC at 8 microg/ml incubated for 18 hrs by broth dilution assay; type: functional; details: dose 8 µg/ml
Escherichia coli [7] = assay: Synergistic antibacterial activity against wild type Escherichia coli BW25113 assessed as levofloxacin MIC at 32 microg/ml incubated for 18 hrs by broth dilution assay; type: functional; details: dose 32 µg/ml
Escherichia coli [8] = assay: Synergistic antibacterial activity against wild type Escherichia coli BW25113 assessed as levofloxacin MIC at 64 microg/ml incubated for 18 hrs by broth dilution assay; type: functional; details: dose 64 µg/ml
Escherichia coli [9] = assay: Synergistic antibacterial activity against wild type Escherichia coli BW25113 assessed as levofloxacin MIC at 128 microg/ml incubated for 18 hrs by broth dilution assay; type: functional; details: dose 128 µg/ml
Escherichia coli [10] = assay: Synergistic antibacterial activity against wild type Escherichia coli BW25113 assessed as minocycline MIC at 8 microg/ml incubated for 18 hrs by broth dilution assay; type: functional; details: dose 8 µg/ml
Escherichia coli [11] = assay: Synergistic antibacterial activity against wild type Escherichia coli BW25113 assessed as minocycline MIC at 16 microg/ml incubated for 18 hrs by broth dilution assay; type: functional; details: dose 16 µg/ml
Escherichia coli [12] = assay: Synergistic antibacterial activity against wild type Escherichia coli BW25113 assessed as minocycline MIC at 32 microg/ml incubated for 18 hrs by broth dilution assay; type: functional; details: dose 32 µg/ml
Escherichia coli [13] = assay: Synergistic antibacterial activity against wild type Escherichia coli BW25113 assessed as minocycline MIC at 64 microg/ml incubated for 18 hrs by broth dilution assay; type: functional; details: dose 64 µg/ml
Escherichia coli [14] = assay: Synergistic antibacterial activity against wild type Escherichia coli BW25113 assessed as minocycline MIC at 128 microg/ml incubated for 18 hrs by broth dilution assay; type: functional; details: dose 128 µg/ml
Escherichia coli [15] = assay: Synergistic antibacterial activity against wild type Escherichia coli BW25113 assessed as erythromycin MIC at 8 microg/ml incubated for 18 hrs in presence of colistin by broth dilution assay; type: functional; details: dose 8 µg/ml
Escherichia coli [16] = assay: Synergistic antibacterial activity against wild type Escherichia coli BW25113 assessed as erythromycin MIC at 16 microg/ml incubated for 18 hrs in presence of colistin by broth dilution assay; type: functional; details: dose 16 µg/ml
Escherichia coli [17] = assay: Synergistic antibacterial activity against wild type Escherichia coli BW25113 assessed as erythromycin MIC at 32 microg/ml incubated for 18 hrs in presence of colistin by broth dilution assay; type: functional; details: dose 32 µg/ml
Escherichia coli [18] = assay: Synergistic antibacterial activity against wild type Escherichia coli BW25113 assessed as erythromycin MIC at 64 microg/ml incubated for 18 hrs in presence of colistin by broth dilution assay; type: functional; details: dose 64 µg/ml
Escherichia coli [19] = assay: Synergistic antibacterial activity against wild type Escherichia coli BW25113 assessed as levofloxacin MIC at 16 microg/ml incubated for 18 hrs in presence of colistin by broth dilution assay; type: functional; details: dose 16 µg/ml
Escherichia coli [20] = assay: Synergistic antibacterial activity against wild type Escherichia coli BW25113 assessed as minocycline MIC at 8 microg/ml incubated for 18 hrs in presence of colistin by broth dilution assay; type: functional; details: dose 8 µg/ml
Escherichia coli [21] = assay: Synergistic antibacterial activity against wild type Escherichia coli BW25113 assessed as minocycline MIC at 16 microg/ml incubated for 18 hrs in presence of colistin by broth dilution assay; type: functional; details: dose 16 µg/ml
Escherichia coli [22] = assay: Synergistic antibacterial activity against wild type Escherichia coli BW25113 assessed as minocycline MIC at 32 microg/ml incubated for 18 hrs in presence of colistin by broth dilution assay; type: functional; details: dose 32 µg/ml
[23] = Hemolytic activity in mouse RBC assessed as hemolysis at 4 to 256 microg/ml incubated for 1 hr by microplate reader analysis; type: toxicity, cell-based, Erythrocyte; details: mouse red blood cells (erythrocytes), at 4 to 256 µg/mL, dose 4-256 µg/ml, read-out: Activity
[24] = Toxicity in Caenorhabditis elegans assessed as survival rate at 128 microg/ml measured after 72 hrs by light microscopic analysis; details: at 128 µg/mL
[25] = biological target: T1, Multidrug efflux pump subunit AcrB (Escherichia coli (strain K12)) (UniProt P31224); assay: Inhibition of Escherichia coli BW25113 AcrB assessed as inhibition of nile red efflux at 50 uM incubated for 15 mins
T1 sequence (whole entry): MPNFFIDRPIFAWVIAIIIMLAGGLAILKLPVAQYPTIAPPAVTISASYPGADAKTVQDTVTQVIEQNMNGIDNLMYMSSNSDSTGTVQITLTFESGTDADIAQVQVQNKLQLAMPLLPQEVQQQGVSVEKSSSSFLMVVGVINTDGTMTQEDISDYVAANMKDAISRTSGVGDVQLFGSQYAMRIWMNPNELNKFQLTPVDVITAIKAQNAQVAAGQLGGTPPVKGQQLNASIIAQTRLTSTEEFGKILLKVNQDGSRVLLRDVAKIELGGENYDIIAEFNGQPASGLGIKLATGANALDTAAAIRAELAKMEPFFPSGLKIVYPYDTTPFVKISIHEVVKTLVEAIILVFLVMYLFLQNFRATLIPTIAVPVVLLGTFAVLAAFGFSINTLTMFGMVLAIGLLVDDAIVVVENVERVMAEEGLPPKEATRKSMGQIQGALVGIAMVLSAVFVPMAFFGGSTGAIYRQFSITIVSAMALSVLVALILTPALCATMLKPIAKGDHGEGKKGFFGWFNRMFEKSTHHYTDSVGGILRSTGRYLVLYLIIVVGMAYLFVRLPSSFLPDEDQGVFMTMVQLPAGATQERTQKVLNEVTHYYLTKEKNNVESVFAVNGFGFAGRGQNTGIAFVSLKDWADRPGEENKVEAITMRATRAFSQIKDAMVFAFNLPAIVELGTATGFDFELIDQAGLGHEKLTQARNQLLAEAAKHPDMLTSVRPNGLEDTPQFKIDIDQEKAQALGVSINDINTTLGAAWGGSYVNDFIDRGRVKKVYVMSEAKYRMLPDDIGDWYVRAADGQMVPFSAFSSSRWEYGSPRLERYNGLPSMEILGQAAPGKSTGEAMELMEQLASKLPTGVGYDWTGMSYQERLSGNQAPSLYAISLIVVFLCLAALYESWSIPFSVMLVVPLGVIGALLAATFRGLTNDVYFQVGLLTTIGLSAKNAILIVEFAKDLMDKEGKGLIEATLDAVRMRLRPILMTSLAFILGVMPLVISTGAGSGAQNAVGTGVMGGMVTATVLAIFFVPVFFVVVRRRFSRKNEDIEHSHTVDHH

SMILES	MIC (Escherichia coli [1]) [mg/L]	MIC (Escherichia coli [2]) [mg/L]	MIC (Escherichia coli [3]) [mg/L]	MIC (Escherichia coli [4]) [mg/L]	MIC (Escherichia coli [5]) [mg/L]	MIC (Escherichia coli [6]) [mg/L]	MIC (Escherichia coli [7]) [mg/L]	MIC (Escherichia coli [8]) [mg/L]	MIC (Escherichia coli [9]) [mg/L]	MIC (Escherichia coli [10]) [mg/L]	MIC (Escherichia coli [11]) [mg/L]	MIC (Escherichia coli [12]) [mg/L]	MIC (Escherichia coli [13]) [mg/L]	MIC (Escherichia coli [14]) [mg/L]	MIC (Escherichia coli [15]) [mg/L]	MIC (Escherichia coli [16]) [mg/L]	MIC (Escherichia coli [17]) [mg/L]	MIC (Escherichia coli [20]) [mg/L]	hemolysis at 1 h [23] [%]	survival at 72 h, 128 microg/ml [24] [%]	other results
CC1(C)CCc2c(C(=O)N3CCOCC3)cc3c(OCCSc4ccc([N+](=O)[O-])cc4)cccc3c2O1	16	16	16	16	16	0.016	0.016	0.016	0.016	2	2	2	1	2	8	8	4	1	< 5	90	MIC (Escherichia coli [18]): 4 mg/L; MIC (Escherichia coli [19]): 0.032 mg/L; MIC (Escherichia coli [21]): 1 mg/L; MIC (Escherichia coli [22]): 1 mg/L
CC1(C)CCc2c(C(=O)N3CCOCC3)cc3c(OCCN4CCN(c5ccccc5)CC4)cccc3c2O1	32	32	32	32	16	0.032	0.016	0.016	0.016	2	2	2	2	1	4	–	–	0.5	< 5	90	inhibition [25]: Active
COc1ccc(OCCCOc2cccc3c4c(c(C(=O)N5CCOCC5)cc23)CCC(C)(C)O4)cc1	32	32	32	16	8	0.032	0.032	0.032	0.032	2	2	2	1	1	16	16	16	0.5	< 5	90	MIC (Escherichia coli [18]): 16 mg/L; MIC (Escherichia coli [19]): 0.016 mg/L; MIC (Escherichia coli [21]): 0.5 mg/L; MIC (Escherichia coli [22]): 0.5 mg/L; inhibition [25]: Active
CC1(C)CCc2c(C(=O)N3CCOCC3)cc3c(OCCCOc4cccc(C(=O)O)c4)cccc3c2O1	32	32	32	16	16	0.016	0.016	0.016	0.016	–	2	1	1	0.5	8	4	4	0.5	< 5	90	MIC (Escherichia coli [18]): 4 mg/L; MIC (Escherichia coli [19]): 0.016 mg/L; MIC (Escherichia coli [21]): 0.5 mg/L; MIC (Escherichia coli [22]): 0.5 mg/L; inhibition [25]: Active
